Results published in patent US10570122B2, “Compounds with anti-tumoral activity” (AB Science, priority 2015, dated 2020).

Columns and labels:
BT20 = test: CellTiter-Blue cell-based survival/proliferation assay, BT20; conditions: Homo sapiens, BT-20; BT20 breast tumor cell line, 48 h
Procedure: (§1) Cell-Based Proliferation Screening of Compounds
(§2) CellTiter-Blue cell-based survival/proliferation assay (Promega G8080) was performed on tumor cell lines. A total of 1·10^4 cells/well/50 μl were seeded in a 96-wells plate. Treatment was initiated by addition of a 2× drug solution of 1/10 serial dilutions ranging from 0 to 10 μM. Cells were grown for 48 h at 37° C. and then incubated with 10 μl/well of Promega CellTiter-Bleue reagent for 4 h at 37° C. The amount of resorufin dye formed was quantified by its fluorescence emission at 590 nm using a scanning multiwell spectrophotometer (OPTIMA, BMG labtech, France). A blank well without cells was used as a background control for the spectrophotometer.

HL60 = test: CellTiter-Blue cell-based survival/proliferation assay, HL60; conditions: Homo sapiens, HL-60, Leukemia cell line HL60, 48 h, read-out: Anti-tumoral activity (measured IC50) HL60
Procedure: as §1, §2

HEPG2 = test: CellTiter-Blue cell-based survival/proliferation assay, HEPG2; conditions: Homo sapiens; HEPG2 liver tumor cell line, 48 h
Procedure: as §1, §2

REC1 = test: CellTiter-Blue cell-based survival/proliferation assay, REC1; conditions: Homo sapiens, Lymphoma cell line REC1, 48 h, read-out: Anti-tumoral activity (measured IC50) REC1
Procedure: as §1, §2

PANC1 = test: CellTiter-Blue cell-based survival/proliferation assay, PANC1; conditions: Homo sapiens, PANC-1; PANC_1 pancreas tumor cell line, 48 h
Procedure: as §1, §2

A498 = test: CellTiter-Blue cell-based survival/proliferation assay, A498; conditions: Homo sapiens; A498 kidney tumor cell line, 48 h
Procedure: as §1, §2

OPM2 = test: CellTiter-Blue cell-based survival/proliferation assay, OPM2; conditions: Homo sapiens, OPM-2, Myeloma cell line OPM2, 48 h, read-out: Anti-tumoral activity (measured IC50) OPM2
Procedure: as §1, §2

ACHN = test: CellTiter-Blue cell-based survival/proliferation assay, ACHN; conditions: Homo sapiens; ACHN kidney tumor cell line, 48 h
Procedure: as §1, §2

TOV112D = test: CellTiter-Blue cell-based survival/proliferation assay, TOV112D; conditions: Homo sapiens; TOV112D ovary tumor cell line, 48 h
Procedure: as §1, §2

KARPAS299 = test: CellTiter-Blue cell-based survival/proliferation assay, KARPAS299; conditions: Homo sapiens, KARPAS-299, Lymphoma cell line KARPAS299, 48 h, read-out: Anti-tumoral activity (measured IC50) KARPAS299
Procedure: as §1, §2

CALU6 = test: CellTiter-Blue cell-based survival/proliferation assay, CALU6; conditions: Homo sapiens, Calu-6; CALU6 lung tumor cell line, 48 h
Procedure: as §1, §2

BXPC3 = test: CellTiter-Blue cell-based survival/proliferation assay, BXPC3; conditions: Homo sapiens, BXPC-3; BXPC3 pancreas tumor cell line, 48 h
Procedure: as §1, §2

H1299 = test: CellTiter-Blue cell-based survival/proliferation assay, H1299; conditions: Homo sapiens, NCI-H1299; H1299 lung tumor cell line, 48 h
Procedure: as §1, §2

A549 = test: CellTiter-Blue cell-based survival/proliferation assay, A549; conditions: Homo sapiens; A549 lung tumor cell line, 48 h
Procedure: as §1, §2

SW579 = test: CellTiter-Blue cell-based survival/proliferation assay, SW579; conditions: Homo sapiens; SW579 head & neck tumor cell line, 48 h
Procedure: as §1, §2

MDAMB231 = test: CellTiter-Blue cell-based survival/proliferation assay, MDAMB231; conditions: Homo sapiens, MDA-MB-231; MDAMB231 breast tumor cell line, 48 h
Procedure: as §1, §2

[1] = test system: panel of about 34 human tumor cell lines; test: Cell-based proliferation screening on panel of tumor cell lines; conditions: solid tumor cell line, cell line unknown, 48 h, read-out: IC50, solid tumor cell line of column 6 (last section of Table 3)
Procedure: Compounds of formula (I) were tested against a panel of about 34 human tumor cell lines representing 17 cancer type, namely leukemia (represented by 1 cell line), lymphoma (4 cell lines), myeloma (1 cell line), colorectal (2 cell lines), head and neck (3 cell lines), lung (3 cell lines), melanoma (2 cell lines), pancreas (2 cell lines), prostate (2 cell lines), ovary (2 cell lines) breast (2 cell lines), kidney (2 cell lines), stomach (2 cell lines), liver (2 cell lines), glioblastoma (2 cell lines), osteosarcoma (1 cell line), Ewing Sarcoma (1 cell line).
as §1, §2

HEP2 = test: CellTiter-Blue cell-based survival/proliferation assay, HEP2; conditions: Homo sapiens, HEp-2; HEP2 head & neck tumor cell line, 48 h
Procedure: as §1, §2

PLCPRF5 = test: CellTiter-Blue cell-based survival/proliferation assay, PLCPRF5; conditions: Homo sapiens, PLC-PRF-5; PLC_PRF5 liver tumor cell line, 48 h
Procedure: as §1, §2

HUT78 = test: CellTiter-Blue cell-based survival/proliferation assay, HUT78; conditions: Homo sapiens, Lymphoma cell line HUT78, 48 h, read-out: Anti-tumoral activity (measured IC50) HUT78
Procedure: as §1, §2

AGS = test: CellTiter-Blue cell-based survival/proliferation assay, AGS; conditions: Homo sapiens; AGS stomach tumor cell line, 48 h
Procedure: as §1, §2

HGC27 = test: CellTiter-Blue cell-based survival/proliferation assay, HGC27; conditions: Homo sapiens, HGC-27; HGC27 stomach tumor cell line, 48 h
Procedure: as §1, §2

PC3 = test: CellTiter-Blue cell-based survival/proliferation assay, PC3; conditions: Homo sapiens, PC-3; PC3 prostate tumor cell line, 48 h
Procedure: as §1, §2

CLS354 = test: CellTiter-Blue cell-based survival/proliferation assay, CLS354; conditions: Homo sapiens, CLS-354; CLS354_4 head & neck tumor cell line, 48 h
Procedure: as §1, §2

HCT116 = test: CellTiter-Blue cell-based survival/proliferation assay, HCT116; conditions: Homo sapiens, HCT-116; HCT116 colorectal tumor cell line, 48 h
Procedure: as §1, §2

DU145 = test: CellTiter-Blue cell-based survival/proliferation assay, DU145; conditions: Homo sapiens, DU-145; DU145 prostate tumor cell line, 48 h
Procedure: as §1, §2

MESSA = test: CellTiter-Blue cell-based survival/proliferation assay, MESSA; conditions: Homo sapiens, MES-SA; MESSA ovary tumor cell line, 48 h
Procedure: as §1, §2

DLD1 = test: CellTiter-Blue cell-based survival/proliferation assay, DLD1; conditions: Homo sapiens, DLD-1; DLD_1 colorectal tumor cell line, 48 h
Procedure: as §1, §2

Measured: IC50

Cc1ccc(C(=O)NCCN2CCN(C)CC2)cc1Nc1ncc(-c2ccc(-n3cccn3)cc2)o1 [Example 032, 4-Methyl-N-[2-(4-methyl-piperazin-1-yl)-ethyl]-3-[5-(4-pyrazol-1-yl-phenyl)-oxazol-2-ylamino]-benzamide]
> 1 µM: all assays above

Cc1ccc(COCCO)cc1Nc1ncc(-c2ccc(-n3cccn3)cc2)o1 [Example 026, 2-{4-Methyl-3-[5-(4-pyrazol-1-yl-phenyl)-oxazol-2-ylamino]-benzyloxy}-ethanol]
> 1 µM: all assays above

Cc1ccc(OCCN(C)C)cc1Nc1ncc(-c2ccc(-n3cccn3)cc2)o1 [Example 030, [5-(2-Dimethylamino-ethoxy)-2-methyl-phenyl]-[5-(4-pyrazol-1-yl-phenyl)-oxazol-2-yl]-amine]
> 1 µM: all assays above
